From ChEMBL document CHEMBL4364276, “Discovery of 4-phenyl-2H-benzo[b][1,4]oxazin-3(4H)-one derivatives as potent and orally active PI3K/mTOR dual inhibitors” (Eur J Med Chem, 2019)

Key:
[1] = target: Serine/threonine-protein kinase mTOR (Homo sapiens, UniProt P42345); assay: Inhibition of recombinant human N-terminal FLAG-tagged mTOR (1362 to end residues) using Ulight-4E-BP1 as substrate incubated for 30 mins by fluorescence assay
[2] = target: Phosphatidylinositol 4,5-bisphosphate 3-kinase catalytic subunit alpha isoform (Homo sapiens, UniProt P42336); assay: Inhibition of recombinant human full length N-terminal GST-tagged PI3Kalpha (1 to 1068 residues)/PIK3R1 (1 to 724 residues) expressed in baculovirus expression system using PIP2 as substrate incubated for 1 hr by ADP-Glo assay
Sequence of Phosphatidylinositol 4,5-bisphosphate 3-kinase catalytic subunit alpha isoform (P42336 whole entry, looked up, the tested form may be a part, canonical isoform): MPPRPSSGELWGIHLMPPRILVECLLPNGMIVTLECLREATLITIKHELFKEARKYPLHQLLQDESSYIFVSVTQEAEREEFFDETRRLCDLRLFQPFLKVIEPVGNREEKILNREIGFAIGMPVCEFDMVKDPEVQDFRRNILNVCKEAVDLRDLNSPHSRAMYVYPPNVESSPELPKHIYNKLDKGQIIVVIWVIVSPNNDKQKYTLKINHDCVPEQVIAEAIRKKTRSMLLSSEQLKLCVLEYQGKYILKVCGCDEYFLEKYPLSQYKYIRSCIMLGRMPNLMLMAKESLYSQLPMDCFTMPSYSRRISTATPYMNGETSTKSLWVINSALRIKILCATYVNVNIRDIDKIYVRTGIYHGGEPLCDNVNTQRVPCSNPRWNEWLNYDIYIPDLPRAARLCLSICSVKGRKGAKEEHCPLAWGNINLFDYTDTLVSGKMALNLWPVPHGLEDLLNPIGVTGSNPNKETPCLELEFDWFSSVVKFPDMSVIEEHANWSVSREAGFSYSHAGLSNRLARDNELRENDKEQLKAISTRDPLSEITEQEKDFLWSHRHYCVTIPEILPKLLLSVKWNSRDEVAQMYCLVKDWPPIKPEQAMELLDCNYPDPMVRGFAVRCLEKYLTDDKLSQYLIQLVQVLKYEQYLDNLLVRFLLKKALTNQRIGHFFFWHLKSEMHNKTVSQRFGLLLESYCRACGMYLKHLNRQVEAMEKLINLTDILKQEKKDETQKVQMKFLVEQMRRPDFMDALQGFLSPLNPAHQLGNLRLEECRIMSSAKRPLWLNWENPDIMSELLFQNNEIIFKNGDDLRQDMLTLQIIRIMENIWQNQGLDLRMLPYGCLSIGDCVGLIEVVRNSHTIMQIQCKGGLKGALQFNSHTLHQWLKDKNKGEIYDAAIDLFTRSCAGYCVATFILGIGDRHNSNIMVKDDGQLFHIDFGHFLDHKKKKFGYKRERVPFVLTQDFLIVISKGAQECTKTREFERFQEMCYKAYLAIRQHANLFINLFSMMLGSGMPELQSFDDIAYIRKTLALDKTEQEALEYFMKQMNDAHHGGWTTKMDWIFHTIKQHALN

[3] = tested on: A549; assay: cells; settings: Homo sapiens, A549, 72 h
[4] = target: PI3-kinase p110-delta/p85-alpha (Homo sapiens, UniProt O00329); assay: Inhibition of recombinant human full length N-terminal GST-tagged PI3Kdelta (1 to 1044 residues)/PIK3R1 (1 to 724 residues) expressed in baculovirus expression system using PIP2 as substrate incubated for 2 hrs by ADP-Glo assay
Sequence of PI3-kinase p110-delta/p85-alpha (P27986 whole entry, the tested form may be a part): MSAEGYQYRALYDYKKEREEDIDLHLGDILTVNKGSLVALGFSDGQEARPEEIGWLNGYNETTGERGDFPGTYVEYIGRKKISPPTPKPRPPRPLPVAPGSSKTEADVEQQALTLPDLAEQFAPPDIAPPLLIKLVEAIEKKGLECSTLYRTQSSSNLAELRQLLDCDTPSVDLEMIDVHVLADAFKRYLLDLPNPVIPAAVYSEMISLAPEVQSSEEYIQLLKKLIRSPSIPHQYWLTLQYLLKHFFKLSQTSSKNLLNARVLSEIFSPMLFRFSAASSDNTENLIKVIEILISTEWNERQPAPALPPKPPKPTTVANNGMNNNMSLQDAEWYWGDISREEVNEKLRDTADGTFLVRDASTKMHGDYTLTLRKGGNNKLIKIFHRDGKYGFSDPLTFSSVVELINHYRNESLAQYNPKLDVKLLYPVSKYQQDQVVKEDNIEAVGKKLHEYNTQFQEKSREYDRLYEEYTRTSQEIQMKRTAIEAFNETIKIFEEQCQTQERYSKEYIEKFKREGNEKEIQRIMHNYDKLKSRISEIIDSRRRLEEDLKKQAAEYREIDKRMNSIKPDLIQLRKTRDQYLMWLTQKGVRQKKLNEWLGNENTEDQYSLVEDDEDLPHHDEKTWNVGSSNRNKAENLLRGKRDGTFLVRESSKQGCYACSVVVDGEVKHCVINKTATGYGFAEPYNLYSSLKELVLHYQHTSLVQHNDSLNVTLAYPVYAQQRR
Sequence of PI3-kinase p110-delta/p85-alpha (O00329 whole entry, the tested form may be a part): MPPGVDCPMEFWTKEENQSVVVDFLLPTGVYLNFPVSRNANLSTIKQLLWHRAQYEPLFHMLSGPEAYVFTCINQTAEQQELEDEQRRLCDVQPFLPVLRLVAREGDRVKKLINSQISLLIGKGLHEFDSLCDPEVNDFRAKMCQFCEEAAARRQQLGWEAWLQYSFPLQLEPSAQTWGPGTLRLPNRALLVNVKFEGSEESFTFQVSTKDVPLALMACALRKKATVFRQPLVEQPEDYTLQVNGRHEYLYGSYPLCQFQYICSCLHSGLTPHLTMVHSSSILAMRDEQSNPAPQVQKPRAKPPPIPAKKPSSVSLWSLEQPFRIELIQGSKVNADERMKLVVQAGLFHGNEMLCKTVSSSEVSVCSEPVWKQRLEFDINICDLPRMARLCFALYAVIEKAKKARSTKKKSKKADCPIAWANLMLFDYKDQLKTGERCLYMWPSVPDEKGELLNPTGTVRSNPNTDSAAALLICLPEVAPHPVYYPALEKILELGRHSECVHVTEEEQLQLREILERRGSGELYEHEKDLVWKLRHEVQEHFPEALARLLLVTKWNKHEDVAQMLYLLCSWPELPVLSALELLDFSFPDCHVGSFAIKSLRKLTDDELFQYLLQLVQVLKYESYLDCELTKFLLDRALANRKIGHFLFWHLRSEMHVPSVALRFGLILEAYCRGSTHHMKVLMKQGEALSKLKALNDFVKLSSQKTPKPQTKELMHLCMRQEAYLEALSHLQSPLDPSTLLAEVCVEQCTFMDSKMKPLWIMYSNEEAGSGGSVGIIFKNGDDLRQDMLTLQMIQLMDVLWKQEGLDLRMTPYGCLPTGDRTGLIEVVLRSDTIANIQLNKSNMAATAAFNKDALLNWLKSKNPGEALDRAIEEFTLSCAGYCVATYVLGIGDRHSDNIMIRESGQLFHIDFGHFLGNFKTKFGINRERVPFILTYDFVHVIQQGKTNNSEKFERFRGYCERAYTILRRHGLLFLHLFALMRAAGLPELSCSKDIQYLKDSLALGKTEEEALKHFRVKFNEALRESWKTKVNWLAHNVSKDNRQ

[5] = tested on: A-375; assay: Antiproliferative activity against human A375 cells assessed as reduction in cell viability incubated for 72 hrs by MTT assay; format: functional, cell-based; settings: A-375, 72 h
[6] = tested on: MCF7; assay: cells; settings: Homo sapiens, MCF7, 72 h
[7] = tested on: HCT-116; assay: Antiproliferative activity against human HCT116 cells assessed as reduction in cell viability incubated for 72 hrs by MTT assay; format: functional, cell-based; settings: HCT-116, 72 h
[8] = tested on: HepG2; assay: cells; settings: Homo sapiens, HepG2, 72 h
[9] = tested on: HeLa; assay: Antiproliferative activity against human HeLa cells assessed as reduction in cell viability incubated for 72 hrs by MTT assay; format: functional, cell-based

| IC50 [1] | IC50 [2] | IC50 [3] | IC50 [4] | IC50 [5] | IC50 [6] | IC50 [7] | IC50 [8] | IC50 [9] | SMILES |
| --- | --- | --- | --- | --- | --- | --- | --- | --- | --- |
| > 1 µM | > 1 µM | > 40 µM | > 1 µM | > 40 µM | 29 µM | > 40 µM | > 40 µM | > 40 µM | O=C1COc2ccc(-c3ccc(O)cc3)cc2N1c1ccccc1 |
| > 1 µM | > 10 µM | > 40 µM | > 1 µM | > 40 µM | > 40 µM | > 40 µM | > 40 µM | > 40 µM | O=C1COc2ccc(-c3ccc(O)cc3)cc2N1C1CCCCC1 |
| > 1 µM | > 1 µM | > 40 µM | > 1 µM | > 40 µM | > 40 µM | 39.6 µM | > 40 µM | > 40 µM | O=C1COc2ccc(-c3ccc(O)cc3)cc2N1c1ccc(Cl)cc1 |
| > 1 µM | > 1 µM | > 40 µM | > 1 µM | > 40 µM | 30.2 µM | > 40 µM | > 40 µM | > 40 µM | O=C1COc2ccc(-c3ccc(O)cc3)cc2N1c1ccc(F)cc1 |
| > 1 µM | > 1 µM | 32.1 µM | > 1 µM | 20.1 µM | 18.3 µM | > 40 µM | > 40 µM | > 40 µM | O=C1COc2ccc(-c3cccc(NS(=O)(=O)c4ccc(F)cc4)c3)cc2N1 |
| > 1 µM | > 1 µM | > 40 µM | > 1 µM | > 40 µM | > 40 µM | > 40 µM | > 40 µM | > 40 µM | O=C1COc2ccc(-c3cccc(NS(=O)(=O)c4ccc(F)cc4)c3)cc2N1C1CC1 |
| > 1 µM | > 1 µM | > 40 µM | > 1 µM | > 40 µM | 29.5 µM | > 40 µM | > 40 µM | > 40 µM | O=C1COc2ccc(-c3cnc4ccccc4c3)cc2N1C1CC1 |
| > 1 µM | > 1 µM | > 40 µM | > 1 µM | > 40 µM | > 40 µM | 36.1 µM | 32.7 µM | > 40 µM | O=C1COc2ccc(-c3cnc4ccccc4c3)cc2N1c1ccc(Cl)cc1 |
| > 1 µM | > 1 µM | > 40 µM | > 1 µM | > 40 µM | 33 µM | > 40 µM | 32.7 µM | > 40 µM | O=C1COc2ccc(-c3ccc(O)cc3)cc2N1C1CC1 |
| > 1 µM | > 1 µM | > 40 µM | > 1 µM | > 40 µM | > 40 µM | > 40 µM | > 40 µM | > 40 µM | COc1ccc(N2C(=O)COc3ccc(-c4cnc5ccccc5c4)cc32)cc1 |
| > 1 µM | > 1 µM | > 40 µM | > 1 µM | > 40 µM | > 40 µM | > 40 µM | > 40 µM | > 40 µM | O=C1COc2ccc(-c3cnc4ccccc4c3)cc2N1c1ccccc1 |
| > 1 µM | > 1 µM | > 40 µM | > 1 µM | > 40 µM | 26.2 µM | > 40 µM | > 40 µM | > 40 µM | Cc1ccc(N2C(=O)COc3ccc(-c4ccc(O)cc4)cc32)cc1 |
| > 1 µM | > 1 µM | > 40 µM | > 1 µM | > 40 µM | > 40 µM | > 40 µM | 26.3 µM | > 40 µM | O=C1COc2ccc(-c3cnc4ccccc4c3)cc2N1 |
| > 1 µM | > 1 µM | > 40 µM | > 1 µM | 30.4 µM | > 40 µM | 15.3 µM | 26.1 µM | > 40 µM | COc1cccc(N2C(=O)COc3ccc(-c4ccc(O)cc4)cc32)c1 |
| > 1 µM | > 1 µM | > 40 µM | > 1 µM | > 40 µM | > 40 µM | > 40 µM | > 40 µM | > 40 µM | Cc1ccc(N2C(=O)COc3ccc(-c4cnc5ccccc5c4)cc32)cc1 |
| > 1 µM | > 1 µM | > 40 µM | > 1 µM | > 40 µM | > 40 µM | > 40 µM | > 40 µM | 19.7 µM | O=C1COc2ccc(-c3cnc4ccccc4c3)cc2N1C1CCCCC1 |
| > 1 µM | > 1 µM | > 40 µM | > 1 µM | 23.6 µM | > 40 µM | 8.24 µM | 2.08 µM | 11.3 µM | COc1cccc(N2C(=O)COc3ccc(-c4cnc5ccccc5c4)cc32)c1 |

The remaining lines, values behind:

| SMILES | IC50 [1] | IC50 [2] | IC50 [3] | IC50 [4] | IC50 [5] | IC50 [6] | IC50 [7] | IC50 [8] | IC50 [9] |
| --- | --- | --- | --- | --- | --- | --- | --- | --- | --- |
| COc1ccc(N2C(=O)COc3ccc(-c4cccc(NS(=O)(=O)c5ccc(F)cc5)c4)cc32)cc1 | > 1 µM | > 1 µM | 38.2 µM | > 1 µM | 38.5 µM | 32.4 µM | 28.3 µM | 29.8 µM | 13.2 µM |
| COc1ncc(-c2ccc3c(c2)N(c2ccc(Cl)cc2)C(=O)CO3)cc1NS(=O)(=O)c1ccc(F)cc1 | 0.0126 µM | 0.022 µM | 8.35 µM | 0.018 µM | 24.1 µM | 27.6 µM | 19.2 µM | 17.9 µM | 4.83 µM |
| O=C1COc2ccc(-c3cnc(Cl)c(NS(=O)(=O)c4ccc(F)cc4)c3)cc2N1c1ccc(Cl)cc1 | 0.0141 µM | 0.002 µM | 21.6 µM | 0.0032 µM | 30.6 µM | 32.8 µM | 27.9 µM | 33.9 µM | > 40 µM |
| CC(C)N1C(=O)COc2ccc(-c3cnc(Cl)c(NS(=O)(=O)c4ccc(F)cc4)c3)cc21 | 0.0043 µM | 0.0155 µM | 5.1 µM | 0.0038 µM | 25.5 µM | 26.6 µM | 18.9 µM | 21.5 µM | 5.38 µM |
| O=C1COc2ccc(-c3cccc(NS(=O)(=O)c4ccc(F)cc4)c3)cc2N1c1ccc(Cl)cc1 | > 1 µM | > 1 µM | 31.6 µM | > 1 µM | 32.5 µM | 39.8 µM | 23.9 µM | 27.8 µM | 35 µM |
| Cc1ccc(N2C(=O)COc3ccc(-c4cccc(NS(=O)(=O)c5ccc(F)cc5)c4)cc32)cc1 | > 1 µM | > 1 µM | > 40 µM | > 1 µM | 36.2 µM | 32.1 µM | 35.6 µM | > 40 µM | > 40 µM |
| O=C1COc2ccc(-c3cccc(NS(=O)(=O)c4ccc(F)cc4)c3)cc2N1C1CCCCC1 | > 1 µM | > 1 µM | 14.5 µM | > 1 µM | 23.8 µM | 21.4 µM | 18.3 µM | 35.9 µM | 10.8 µM |
| CC(C)N1C(=O)COc2ccc(-c3cccc(NS(=O)(=O)c4ccc(F)cc4)c3)cc21 | > 1 µM | > 1 µM | 29.4 µM | > 1 µM | > 40 µM | 26 µM | 22.6 µM | > 40 µM | 22.7 µM |
| O=C1COc2ccc(-c3cnc(Cl)c(NS(=O)(=O)c4ccc(F)cc4)c3)cc2N1C1CCCCC1 | 0.29 µM | 0.112 µM | 37.9 µM | 0.079 µM | > 40 µM | > 40 µM | > 40 µM | > 40 µM | 14.3 µM |
| COc1ncc(-c2ccc3c(c2)N(c2ccc(C)cc2)C(=O)CO3)cc1NS(=O)(=O)c1ccc(F)cc1 | 0.0138 µM | 0.012 µM | 5.87 µM | 0.017 µM | 12.9 µM | 15.4 µM | 22.7 µM | 28.3 µM | 4.65 µM |
| COc1ncc(-c2ccc3c(c2)N(c2ccccc2)C(=O)CO3)cc1NS(=O)(=O)c1ccc(F)cc1 | 0.0486 µM | 0.102 µM | 3.49 µM | 0.08 µM | 15.2 µM | 8.87 µM | 18.8 µM | 14 µM | 1.53 µM |
| O=C1COc2ccc(-c3cnc(Cl)c(NS(=O)(=O)c4ccc(F)cc4)c3)cc2N1C1CC1 | 0.267 µM | 0.086 µM | 4.33 µM | 0.062 µM | 21.8 µM | 16.7 µM | 12.4 µM | 8.51 µM | 7.18 µM |
| O=C1COc2ccc(-c3cccc(NS(=O)(=O)c4ccc(F)cc4)c3)cc2N1c1ccc(F)cc1 | > 1 µM | > 1 µM | > 40 µM | > 10 µM | > 40 µM | > 40 µM | > 40 µM | > 40 µM | > 40 µM |
| O=C1COc2ccc(-c3cnc(Cl)c(NS(=O)(=O)c4ccc(F)cc4)c3)cc2N1c1ccccc1 | 0.0153 µM | 0.019 µM | 14.7 µM | 0.015 µM | 36.9 µM | > 40 µM | 39.8 µM | 35.7 µM | 10.3 µM |
